The results in this text go back to patent US5618818A, “Muscarinic agonist compounds” (The University of Toledo, priority 1996, dated 1997).

Counter-ions that a name gives are not always drawn.

This test has as its target muscarinic receptors in the rat central nervous system. Put plainly: Binding affinity at muscarinic receptors in the rat central nervous system, [^3 H]-QNB IC50. The settings on record: mean from one to three experiments, each in triplicate. The source says:
Binding affinities and agonist activity in a series of
amidine derivatives at muscarinic receptors in the rat
central nervous system. Data represent the mean from one
to three experiments, each performed in triplicate.

As a reminder, the IC50 is the concentration needed to halve the response being measured. Compound `CN(C)NC(=O)C1CN=C(N)NC1` (stereo not shown) [CDD-0126-A, 2-Amino-1,4,5,6-tetrahydropyrimidine-5-carboxylic-(N,N-dimethyl)hydrazide HCl] had a 50% inhibitory concentration (IC50) of 50 µM.
